According to ChEMBL document CHEMBL1130085, “Substituted 3-(phenylsulfonyl)-1-phenylimidazolidine-2,4-dione derivatives as novel nonpeptide inhibitors of human heart chymase” (J Med Chem, 1997):

Key:
Chymotrypsinogen A = Chymotrypsinogen A (Bos taurus, UniProt P00766); assay: Inhibitory activity against bovine pancreas alpha-chymotrypsin in vitro
Cathepsin G = target: T1, Cathepsin G (Homo sapiens, UniProt P08311); assay: Inhibitory activity against human neutrophil cathepsin G.
T1 sequence (P08311 whole entry): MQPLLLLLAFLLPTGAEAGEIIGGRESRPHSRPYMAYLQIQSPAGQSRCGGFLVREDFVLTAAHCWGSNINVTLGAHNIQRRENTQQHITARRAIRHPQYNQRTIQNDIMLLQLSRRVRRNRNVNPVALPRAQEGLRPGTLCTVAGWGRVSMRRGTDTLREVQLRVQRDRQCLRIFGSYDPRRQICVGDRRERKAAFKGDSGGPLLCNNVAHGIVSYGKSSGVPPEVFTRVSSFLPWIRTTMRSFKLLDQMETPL

Chymase = target: T2, Chymase (Homo sapiens, UniProt P23946); assay: Inhibitory activity against human heart chymase in vitro.
T2 sequence (P23946 whole entry): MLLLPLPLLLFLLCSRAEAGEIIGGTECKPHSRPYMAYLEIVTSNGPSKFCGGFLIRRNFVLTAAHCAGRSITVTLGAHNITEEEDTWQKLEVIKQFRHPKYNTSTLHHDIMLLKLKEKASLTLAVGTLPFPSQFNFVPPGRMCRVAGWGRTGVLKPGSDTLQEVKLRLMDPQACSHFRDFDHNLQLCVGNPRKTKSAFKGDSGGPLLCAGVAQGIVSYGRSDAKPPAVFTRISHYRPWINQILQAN

SMILES	IC50 (Chymotrypsinogen A) [µM]	IC50 (Cathepsin G) [µM]	IC50 (Chymase) [µM]
O=C(O)c1ccc(N2CC(=O)N(S(=O)(=O)c3ccc(Cl)cc3)C2=O)cc1	42	> 100	–
O=C1CN(c2cccc(Cl)c2)C(=O)N1S(=O)(=O)c1ccc(Cl)cc1	0.2	–	0.066
CN1CCN(C(=O)c2ccc(S(=O)(=O)N3C(=O)CN(c4ccccc4)C3=O)cc2)CC1	6.4	–	3.3
COC(=O)Cc1cccc(S(=O)(=O)N2C(=O)CN(c3ccccc3)C2=O)c1	4	5.4	–
O=C1CN(c2ccccc2)C(=O)N1C(=O)c1ccccc1	0.048	7	20
O=C1CN(c2ccccc2)C(=O)N1C(=O)c1ccc(Cl)cc1	0.23	3	> 100
COc1ccc(N2CC(=O)N(S(=O)(=O)c3ccc(Cl)cc3)C2=O)cc1OC	> 100	> 100	14
O=C(O)c1ccccc1N1CC(=O)N(S(=O)(=O)c2ccc(Cl)cc2)C1=O	73	–	–
O=C1CN(c2ccccc2)C(=O)N1S(=O)(=O)c1ccc(Cl)c(Cl)c1	3.8	–	0.018
COC(=O)c1cccc(S(=O)(=O)N2C(=O)CN(c3ccccc3)C2=O)c1	1.7	–	–
COc1ccc(S(=O)(=O)N2C(=O)CN(c3ccc(C)c(C)c3)C2=O)cc1OC	> 100	> 100	0.022
COc1ccc(S(=O)(=O)N2C(=O)CN(c3ccccc3)C2=O)cc1OC	> 100	4.1	–
CN1CCN(C(=O)c2ccc(N3CC(=O)N(S(=O)(=O)c4ccc(Cl)cc4)C3=O)cc2)CC1	> 100	> 100	27
O=C1CN(c2ccc(Cl)c(Cl)c2)C(=O)N1S(=O)(=O)c1ccc(Cl)c(Cl)c1	3.7	3.7	0.17
O=C1CN(c2ncccn2)C(=O)N1S(=O)(=O)c1ccc(Cl)cc1	52	–	33
O=C1CN(c2ccccn2)C(=O)N1S(=O)(=O)c1ccc(Cl)cc1	> 100	–	18
O=C1CN(S(=O)(=O)c2ccc(Cl)cc2)C(=O)N1c1ccc(Cl)cc1	> 100	–	> 100
O=C1CN(C2CCCCC2)C(=O)N1S(=O)(=O)c1ccc(Cl)cc1	30	–	35
O=C1CN(c2ccc(Cl)c(Cl)c2)C(=O)N1S(=O)(=O)c1ccc(Cl)cc1	4	22	0.023
O=C1CN(c2ccccc2Cl)C(=O)N1S(=O)(=O)c1ccc(Cl)cc1	20	2	0.22
Cc1ccc(N2CC(=O)N(S(=O)(=O)c3ccc(Cl)cc3)C2=O)cc1C	43	3.7	0.035
O=C(O)c1cccc(S(=O)(=O)N2C(=O)CN(c3ccccc3)C2=O)c1	8.5	1	–
N#Cc1cccc(S(=O)(=O)N2C(=O)CN(c3ccccc3)C2=O)c1	0.73	–	–
O=C(O)c1cccc(N2CC(=O)N(S(=O)(=O)c3ccc(Cl)cc3)C2=O)c1	> 100	> 100	–
Cc1ccc(N2CC(=O)N(S(=O)(=O)c3ccc(C)c(C)c3)C2=O)cc1C	> 100	–	–
CC(=O)Nc1ccc(N2CC(=O)N(S(=O)(=O)c3ccc(Cl)cc3)C2=O)cc1	> 100	> 100	> 100
CN1CCN(C(=O)c2cccc(S(=O)(=O)N3C(=O)CN(c4ccccc4)C3=O)c2)CC1	1.4	4.8	0.9
O=C(OCN1C(=O)CN(c2ccccc2)C1=O)c1ccccc1	> 100	> 100	> 100
Cc1ccc(N2CC(=O)N(S(=O)(=O)c3ccc(Cl)c(Cl)c3)C2=O)cc1C	63	–	0.02

Further lines, results first:

IC50 (Chymotrypsinogen A) [µM]	IC50 (Cathepsin G) [µM]	IC50 (Chymase) [µM]	SMILES
1.8	–	–	COC(=O)c1ccc(S(=O)(=O)N2C(=O)CN(c3ccccc3)C2=O)cc1
1.1	1.8	1.8	Cc1ccccc1S(=O)(=O)N1C(=O)CN(c2ccccc2)C1=O
8	6.5	–	O=C1CN(c2ccccc2)C(=O)N1S(=O)(=O)c1ccc([N+](=O)[O-])cc1
1.1	–	–	O=C1CN(c2ccccc2)C(=O)N1S(=O)(=O)c1ccc(Cl)cc1
2.4	–	0.17	O=C1CN(c2ccccc2)C(=O)N1S(=O)(=O)c1ccc(Br)cc1
37	5.9	–	O=C1CN(c2ccccc2Oc2ccccc2)C(=O)N1S(=O)(=O)c1ccc(Cl)cc1
5.8	4.2	–	COc1ccc(S(=O)(=O)N2C(=O)CN(c3ccccc3)C2=O)cc1
11	6.5	–	COC(=O)Cc1ccc(S(=O)(=O)N2C(=O)CN(c3ccccc3)C2=O)cc1
44	1.9	–	O=C(O)c1ccc(S(=O)(=O)N2C(=O)CN(c3ccccc3)C2=O)cc1
2	–	0.03	Cc1ccc(S(=O)(=O)N2C(=O)CN(c3ccccc3)C2=O)cc1C
15	–	–	N#Cc1ccc(S(=O)(=O)N2C(=O)CN(c3ccccc3)C2=O)cc1
8	3.7	–	O=C1CN(c2ccccc2)C(=O)N1S(=O)(=O)c1ccc(Oc2ccccc2)cc1
> 100	2.5	0.13	O=C1CN(c2ccccc2)C(=O)N1S(=O)(=O)c1cccc(Cl)c1
37	–	> 100	O=C1CN(c2ccccc2)C(=O)N1S(=O)(=O)Cc1ccccc1
1.4	4.5	–	O=C1CN(c2ccccc2)C(=O)N1S(=O)(=O)c1ccccc1
2.6	1.5	0.37	O=C1CN(c2ccccc2)C(=O)N1S(=O)(=O)c1ccc(F)cc1
1.2	2.2	1.1	O=C1CN(c2ccccc2)C(=O)N1S(=O)(=O)c1ccccc1Cl
